# Measured values as given in publication PMC11763264, “Antibacterial and Antifungal Activities of Linear and Cyclic Peptides Containing Arginine, Tryptophan, and Diphenylalanine” (Antibiotics, 2025).
# Where “and” joins values, the source holds several entries; their conditions need not be identical. Identical values can stand only once. Non-standard residues stand in square brackets, D forms with d. Residues, ends and D or L forms follow the SMILES beside them. Dip = N[C@H](C(=O)O)C(c1ccccc1)c1ccccc1
# How the values were obtained:
# [1] = tested on: MRSA (ATCC BAA-1556); assay: microbe, parasite or virus in culture; type: cell-based, Methicillin-Resistant Staphylococcus aureus; settings: ATCC BAA-1556, 24 h
# Procedure: (§1) The antibacterial activity of all ten synthesized linear and cyclic peptides was evaluated against MRSA (ATCC BAA-1556), S. aureus (ATCC 29213), E. faecium (ATCC 700221), S. pneumoniae (ATCC 51938), E. faecalis (ATCC 29212), B. subtilis (ATCC-6633), K. pneumoniae (ATCC BAA-1705), P. aeruginosa (ATCC 27883), and E. coli (ATCC 25922). Meropenem and daptomycin were used as positive controls for this study. Certain peptides are marked as “NT” (not tested) against specific bacterial strains based on initial screening data. […] The MIC was determined by micro-broth dilution protocol, where the minimal concentrations were determined to be in wells with no visible bacterial growth.
# (§2) All bacterial experiments were carried out in a laminar flow hood (Labconco, Kansas City, MO, USA). The bacterial strains were cultured following the guidelines set by the Clinical Laboratory Standards Institute (CLSI). Antibacterial assays were performed using a standard microtiter dilution method as described in previous studies. The minimum inhibitory concentration (MIC) refers to the lowest peptide concentration that inhibits bacterial growth in wells with no visible bacterial growth. MIC was determined by micro-broth dilution. Bacteria were cultured overnight in 6 mL of Luria Broth (LB). A stock solution of the peptide was prepared in water and DMSO, and a test compound solution with a concentration of 256 µg/mL was made in LB. Meropenem, with a solubility of 8 mg/mL, was prepared as a stock solution at 4 mg/500 µL. An aliquot of the overnight bacteria culture was diluted in normal saline (NS, 1 mL) until achieving a 0.5 McFarland turbidity (1.5 × 10^8 bacterial cell CFU/mL). A 0.5 McFarland compared solution (60 µL) was added to Mueller Hinton Broth (MH) 8940 µL to generate a 1/150 dilution. A 200 µL test compound solution was added to the first well of a 96-well plate, and the remaining wells (2–12) were filled with 100 µL of MH media using a multi-channel pipette from a sterile reservoir. A concentration of […] of the tested peptides was prepared from a stock solution of the samples for testing in Muller−Hinton broth MH media. Peptides stock solution was dissolved in 5% DMSO in water, and the final concentration of DMSO in the first well of assay plate was 2.5% DMSO/H2O and diluted across the assay plate.
# (§3) A 100 µL sample from well 1 was pipetted into well 2, and the solution was mixed thoroughly by pipetting up and down. Next, 100 µL was transferred from well 2 to well 3, followed by thorough mixing. This 2-fold serial dilution process continued through well 11, with no additions made to well 12. The final 100 µL from well 11 was discarded. After completing the serial dilution, each well (1–12) contained 100 µL of solution. The bacterial culture in MH media was vortexed and transferred to a sterile reservoir, from which 100 µL was added to each well using a 12-channel pipette. (Note: The dilutions were further diluted upon adding the bacterial solution; for example, the concentration in well 1 started at […] after the addition of the bacterial culture.) The plates were incubated overnight at 37 °C for 24 h. All experiments were performed in triplicate and repeated twice, with controls consisting of bacteria in MH media and positive controls of daptomycin or meropenem.
# [2] = tested on: S. aureus (ATCC 29213); assay: microbe, parasite or virus in culture; type: cell-based, Staphylococcus aureus; settings: ATCC 29213, 24 h
# Procedure: as §1, §2, §3
# [3] = tested on: E. coli (ATCC 25922); assay: microbe, parasite or virus in culture; type: cell-based, Escherichia coli; settings: ATCC 25922, 24 h
# Procedure: as §1, §2, §3
# [4] = tested on: LLC-PK1 cells; settings: cited from earlier work
# From the text: (§4) We have previously reported in vitro cytotoxicity of the synthesized peptides in a range of mammalian cell lines, including human ovarian adenocarcinoma cells (SK-OV-3), human peripheral blood lymphoblast cells (CCRF-CEM), healthy human embryonic kidney cells (HEK-293), human mammary adenocarcinoma cells (MDA-MB-468), normal pig kidney epithelial cells (LLC-PK1), and human uterine sarcoma fibroblast cells (MES-SA).
# [5] = tested on: MES-SA cells; settings: cited from earlier work
# From the text: as §4
# [6] = tested on: MDA-MB-468 cells; settings: cited from earlier work
# From the text: as §4
# [7] = tested on: S. pneumoniae (ATCC 51938); assay: microbe, parasite or virus in culture; type: cell-based, Streptococcus pneumoniae; settings: ATCC 51938, 24 h
# Procedure: as §1, §2, §3
# [8] = tested on: Gram-negative strains: K. pneumoniae, P. aeruginosa, and E. coli; assay: MIC, micro-broth dilution, span over Gram-negative strains; type: cell-based
# Procedure: as §1
# (§5) All bacterial experiments were carried out in a laminar flow hood (Labconco, Kansas City, MO, USA). The bacterial strains were cultured following the guidelines set by the Clinical Laboratory Standards Institute (CLSI). Antibacterial assays were performed using a standard microtiter dilution method as described in previous studies. The minimum inhibitory concentration (MIC) refers to the lowest peptide concentration that inhibits bacterial growth in wells with no visible bacterial growth. MIC was determined by micro-broth dilution. Bacteria were cultured overnight in 6 mL of Luria Broth (LB). […]
# [9] = tested on: A. fumigatus (Af-293); assay: microbe, parasite or virus in culture; type: cell-based, Aspergillus fumigatus; settings: RPMI 1640 with 2% D-glucose, HEPES, 10^6 cells/mL, 24 and 48 h at 35 °C, no visible growth; triplicates, repeated twice
# Procedure: The antifungal activity of all ten synthesized linear and cyclic peptides was evaluated against C. albicans (ATCC 60193), C. parapsilosis (ATCC 22019), and A. fumigatus (AF-293). Fluconazole and amphotericin B were used as positive controls for this study. The MIC was determined at concentrations in wells with no visible fungal growth.
# A. fumigatus (Af-293) was cultured on Sabouraud dextrose agar (SDA) (Lot #3431660, Oxoid) for 48–72 h at 35 °C to obtain fresh and mature colonies which reached the proper sporulation then used to prepare the inoculum. The colonies were covered with Phosphate-Buffered Saline (PBS) containing 0.025% Tween-20, scraped from the plate, and carefully collected into a sterile tube. The suspension was centrifuged at 3000 RPM for 5 min after the separation between conidia and hyphae. The supernatant was discarded, and the pellet was resuspended in 5 mL of PBS.
# Peptide concentrations of 50, 25, 12.5, 6.25, and 3.1 μg/mL were tested in triplicate. Each well of a 96-well plate was inoculated with the prepared inoculum suspension, which was diluted with RPMI 1640 medium containing L-glutamine, supplemented with 2% D-glucose, and the pH adjusted using HEPES buffer. The plates were incubated for 50 min at 35 °C to achieve a final cell concentration of 10^6 cells/mL. The control wells contained the same inoculum without any compound. The plates were then incubated for 24 and 48 h at 35 °C. Fungal growth was visualized, and the minimum inhibitory concentration (MIC) was determined as the lowest peptide concentration, where no growth was observed.
# [10] = tested on: P. aeruginosa (ATCC 27883); assay: microbe, parasite or virus in culture; type: cell-based, Pseudomonas aeruginosa; settings: ATCC 27883, 24 h
# Procedure: as §1, §2, §3
# [11] = tested on: Gram-positive and Gram-negative bacteria strains; type: cell-based; settings: span over all bacterial strains tested; micro-broth dilution
# Procedure: as §1, §5
# [12] = tested on: Gram-positive bacteria strains: MRSA, S. aureus, E. faecium, E. faecalis, S. pneumoniae, and B. subtilis; type: cell-based; settings: span over MRSA, micro-broth dilution
# Procedure: as §1, §5
structure (smiles),measurement,setting,value
N=C(N)NCCC[C@@H]1NC(=O)[C@H](C(c2ccccc2)c2ccccc2)NC(=O)[C@H](CCCNC(=N)N)NC(=O)[C@H](C(c2ccccc2)c2ccccc2)NC(=O)[C@H](CCCNC(=N)N)NC(=O)[C@H](C(c2ccccc2)c2ccccc2)NC(=O)[C@H](CCCNC(=N)N)NC(=O)[C@H](C(c2ccccc2)c2ccccc2)NC(=O)[C@H](CCCNC(=N)N)NC(=O)[C@H](C(c2ccccc2)c2ccccc2)NC1=O [[DipR]5] (cyclo([Dip]R[Dip]R[Dip]R[Dip]R[Dip]R)),MIC,[1],3.1 µM
same,MIC,[2],3.1 µM
same,MIC,[3],12.5 µM
same,cytotoxicity against LLC-PK1 cells,[4],reduced cytotoxicity
same,cytotoxicity against MES-SA cells,[5],moderate effects
same,cytotoxicity against MDA-MB-468 cells,[6],reduced cytotoxicity
same,MIC,[7],0.39 µM
same,MIC values against Gram-negative strains,[8],12.5–25 µM and 23.8–47.6 µg/mL
same,MIC,[9],1.6 µM
same,MIC,[10],25 µM
same,MIC values against Gram-positive and Gram-negative bacteria strains,[11],0.39 to 25 µM
same,MIC values against Gram-positive bacteria strains,[12],0.39 to 6.3 µM
